Laboratory results reported in publication PMC7373712 (British Journal of Clinical Pharmacology, 2020).
Read-outs that look alike come from different tables or passages of the source.

Experiments:
[1] = cited from earlier work
[2] = Pharmacokinetics of oral microdosed FXaI cocktail; details: for sex differences in pharmacokinetics (in words): 7 male, 11 female; for Cl/F (apparent oral clearance) / Ae (amount excreted in urine as parent drug): geom. mean (95% CI); for interaction / change of pharmacokinetics during voriconazole (in words): microdose cocktail with voriconazole
[3] = Safety: adverse events in study participants; details: for total number of AEs / participants with adverse event (AE): during the treatment named; for participants with adverse event (AE): healthy participants
CYP3A = CYP3A activity by oral microdosed midazolam; details: for AUC: both, human, in vivo, geom. mean
[4] = cited from earlier work; remark: listed apart in the source
[5] = microdose cocktail alone, cobicistat cohort (n = 6)
[6] = microdose cocktail alone, rifampicin cohort (n = 6)
[7] = microdose cocktail alone, voriconazole cohort (n = 6)
[8] = microdose cocktail during voriconazole (n = 6)
[9] = FXaI with cobicistat / FXaI alone

COc1ccc(-n2nc(C(N)=O)c3c2C(=O)N(c2ccc(N4CCCCC4=O)cc2)CC3)cc1 [apixaban]
excreted unchanged into faeces and urine ([1]; given orally): ≥ 50%
fraction metabolised by CYP1A2 and CYP2J2 ([1]; given orally): about 6%
fraction metabolised via CYP3A ([1]; given orally): approximately 15%
not identified or recovered so far ([1]; given orally): about 22%
sex differences in pharmacokinetics (in words) [2]: No sex differences
Cl/F reduced to (% of FXaI alone) ([2]; by cobicistat): 60%
Vss/F reduced to (% of FXaI alone) ([2]; by cobicistat): ~50%
increase of AUC ([2]; by cobicistat): 67%
reduction of clearance ([2]; by cobicistat): 40%
Cl/F reduced to (% of FXaI alone) ([2]; by single dose rifampicin): 75%
Vss/F reduced to (% of FXaI alone) ([2]; by single dose rifampicin): ~50%
effect on Cmax (increase) ([2]; by single dose rifampicin): 69%
reduction of clearance ([2]; by single dose rifampicin): 25%
terminal elimination half-life shortening ([2]; by single dose rifampicin): ~40%
Cl/F reduced to (% of FXaI alone) ([2]; by voriconazole): 75%
effect on Cmax (increase) ([2]; by voriconazole): 15%
reduction of apparent oral clearance (Cl/F) ([2]; by voriconazole): 25%
renal clearance reduced to (% of FXaI alone) ([2]; during cobicistat): 70%
Cl/F (apparent oral clearance) [2, 5]: 66.4 (60.0–73.5) mL/min
Cl/F (apparent oral clearance) [2, 6]: 53.6 (44.5–64.6) mL/min
Cl/F (apparent oral clearance) [2, 7]: 78.0 (69.0–88.4) mL/min
Cl/F (apparent oral clearance) [2, 8]: 58.8 (42.5–81.4) mL/min
interaction / change of pharmacokinetics during voriconazole (in words) [2]: minor interaction

CC(C)c1nc(CN(C)C(=O)N[C@@H](CCN2CCOCC2)C(=O)N[C@H](CC[C@H](Cc2ccccc2)NC(=O)OCc2cncs2)Cc2ccccc2)cs1 [cobicistat]
total number of AEs [3]: 3
participants with adverse event (AE) [3]: 3 out of 6

Cn1c(Cn2ccc(C(F)(F)F)c(Oc3cc(Cl)cc(C#N)c3)c2=O)n[nH]c1=O [doravirine]
elimination half-life ([1]; alone): 18.6 h
elimination half-life ([1]; with a single dose of rifampicin): 5.5 h

CN1CCc2nc(C(=O)N[C@@H]3C[C@@H](C(=O)N(C)C)CC[C@@H]3NC(=O)C(=O)Nc3ccc(Cl)cn3)sc2C1 [edoxaban]
oral bioavailability [1]: ~ 50%
excreted unchanged into urine ([1]; of an oral dose): About 24%
found in faeces as parent drug ([1]; of the oral dose): ~ 50%
sex differences in pharmacokinetics (in words) [2]: No sex differences
Cl/F reduced to (% of FXaI alone) ([2]; by cobicistat): 57%
Vss/F reduced to (% of FXaI alone) ([2]; by cobicistat): 42%
terminal elimination half-life shortening ([2]; by cobicistat): 25%
Cl/F reduced to (% of FXaI alone) ([2]; by single dose rifampicin): 53%
Vss/F reduced to (% of FXaI alone) ([2]; by single dose rifampicin): 37%
terminal elimination half-life shortening ([2]; by single dose rifampicin): 30%
increased fraction excreted unchanged into urine ([2]; by single oral dose of rifampicin): 48.7%
Ae (amount excreted in urine as parent drug) [2, 5]: 32.3 (23.6–44.3) % of dose
Cl/F (apparent oral clearance) [2, 5]: 682 (578–804) mL/min
Ae (amount excreted in urine as parent drug) [2, 6]: 27.2 (19.1–38.8) % of dose
Cl/F (apparent oral clearance) [2, 6]: 643 (499–829) mL/min
Ae (amount excreted in urine as parent drug) [2, 7]: 24.4 (17.7–33.6) % of dose
Cl/F (apparent oral clearance) [2, 7]: 882 (619–1255) mL/min
Ae (amount excreted in urine as parent drug) [2, 8]: 29.4 (21.2–40.8) % of dose
Cl/F (apparent oral clearance) [2, 8]: 700 (445–1100) mL/min
interaction / change of pharmacokinetics during voriconazole (in words) [2]: none and No significant change

Cc1ncc2n1-c1ccc(Cl)cc1C(c1ccccc1F)=NC2 [midazolam]
AUC (CYP3A; AUC2–4, 10 μg midazolam + cobicistat (n = 6)): 0.27 ng·h/mL
AUC (CYP3A; AUC2–4, 10 μg midazolam + voriconazole (n = 6)): 0.285 ng·h/mL

CO[C@H]1/C=C/O[C@@]2(C)Oc3c(C)c(O)c4c(O)c(c(/C=N/N5CCN(C)CC5)c(O)c4c3C2=O)NC(=O)/C(C)=C\C=C\[C@H](C)[C@H](O)[C@@H](C)[C@@H](O)[C@@H](C)[C@H](OC(C)=O)[C@@H]1C [rifampicin]
participants with adverse event (AE) [3]: none

O=C(NC[C@H]1CN(c2ccc(N3CCOCC3=O)cc2)C(=O)O1)c1ccc(Cl)s1 [rivaroxaban]
share of CYP3A and CYP2J2 in total clearance [1]: ~ 32%
sex differences in pharmacokinetics (in words) [2]: No sex differences
AUC ratio (AUCR) [2, 9]: 2.0
Cmax ratio [2, 9]: 1.39
Vss/F reduced to (% of FXaI alone) ([2]; by cobicistat): 72%
renal clearance reduced by ([2]; by cobicistat): ~50%
terminal elimination half-life prolongation ([2]; by cobicistat): 40%
Vss/F reduced to (% of FXaI alone) ([2]; by single dose rifampicin): 64%
terminal elimination half-life shortening ([2]; by single dose rifampicin): 31%
change of AUC ([2]; by voriconazole): 33%
reduction of apparent oral clearance (Cl/F) ([2]; by voriconazole): 33%
Ae (amount excreted in urine as parent drug) [2, 5]: 44.5 (32.5–61.1) % of dose
Cl/F (apparent oral clearance) [2, 5]: 104 (84–129) mL/min
Ae (amount excreted in urine as parent drug) [2, 6]: 54.8 (48.7–61.6) % of dose
Cl/F (apparent oral clearance) [2, 6]: 113 (84–152) mL/min
Ae (amount excreted in urine as parent drug) [2, 7]: 53.7 (46.2–60.1) % of dose
Cl/F (apparent oral clearance) [2, 7]: 121 (85–172) mL/min
Ae (amount excreted in urine as parent drug) [2, 8]: 55.5 (47.8–64.4) % of dose
Cl/F (apparent oral clearance) [2, 8]: 92 (62–137) mL/min
interaction / change of pharmacokinetics during voriconazole (in words) [2]: minor interaction
AUC ratio with and without ketoconazole ([4]; microdosed FXaI cocktail): 2.27
AUC ratio with and without ketoconazole ([4]; therapeutic dose, single-dose, 200 mg ketoconazole): 1.82
AUC ratio with and without ketoconazole ([4]; therapeutic dose, steady-state, 400 mg ketoconazole): 2.58

C[C@@H](c1ncncc1F)[C@](O)(Cn1cncn1)c1ccc(F)cc1F [voriconazole]
total number of AEs [3]: 7
participants with adverse event (AE) [3]: Five out of 6
visual disturbances (number of AEs) ([3]; during voriconazole treatment): 4
CYP3A inhibition (in words) (CYP3A; judged from microdosed midazolam exposure): strong CYP3A inhibitors
